Assay results published in ChEMBL document CHEMBL2331454, “Synthesis and structure-activity relationship studies of novel dual inhibitors of soluble epoxide hydrolase and 5-lipoxygenase” (J Med Chem, 2013).
pIC50: −log10 of the molar value. Blank lines part the entries; values can stand above or below the compound they belong to.

Target: Soluble epoxide hydrolase (Homo sapiens)
Experiment: Inhibition of human recombinant soluble epoxide hydrolase expressed in Escherichia coli after 30 mins by PHOME-based fluorescence assay

Structure (SMILES): COc1ccc(-c2nc3ccc(C)cn3c2NC2CCCCC2)cc1OCCCNC(=O)Nc1ccc(OC(F)(F)F)cc1
pIC50: 5.96

Structure (SMILES): COc1cc(-c2nc3ccc(C)cn3c2NC2CCCCC2)ccc1OCCCNC(=O)NC1CCCCC1
pIC50: 6.72

Structure (SMILES): COc1cc(-c2nc3ccc(C)cn3c2NC2CCCC2)ccc1OCCCNC(=O)Nc1ccc(OC(F)(F)F)cc1
pIC50: 6.33

Structure (SMILES): COc1cc(-c2nc3ccc(C)cn3c2NC(C)C)ccc1OCCCNC(=O)Nc1ccc(C(F)(F)F)cc1
pIC50: 6.21

Structure (SMILES): COc1cc(-c2nc3ccc(Cl)cn3c2NC(C)C)ccc1OCCCNC(=O)Nc1ccc(C(F)(F)F)cc1
pIC50: 6.36

Structure (SMILES): O=C(Nc1ccc(Cl)cc1)N1CCC(CO)CC1
pIC50: 5.65

Other lines, results leading:

pIC50: 6.72
Structure (SMILES): Cc1ccc2nc(-c3ccc(OCCCNC(=O)Nc4ccc(C(F)(F)F)cc4)c(Cl)c3)c(NC3CCCCC3)n2c1

pIC50: 6.36
Structure (SMILES): COc1cc(-c2nc3ccc(C)cn3c2NC2CCCCC2)ccc1OCCCNC(=O)Nc1ccc(C(F)(F)F)cc1

pIC50: 6.94
Structure (SMILES): COc1cc(-c2nc3ccc(C)cn3c2NC2CCCCC2)ccc1OCCCNC(=O)Nc1ccc(OC(F)(F)F)cc1

pIC50: 6.47
Structure (SMILES): COc1cc(-c2nc3ccc(Cl)cn3c2NC2CCCCC2)ccc1OCCCNC(=O)Nc1ccc(C(F)(F)F)cc1

pIC50: 6.16
Structure (SMILES): COc1cc(-c2nc3ccc(F)cn3c2NC2CCCCC2)ccc1OCCCNC(=O)Nc1ccc(OC(F)(F)F)cc1

pIC50: 6.19
Structure (SMILES): COc1cc(-c2nc3ccc(F)cn3c2NC2CCCCC2)ccc1OCCCNC(=O)Nc1ccc(C(F)(F)F)cc1

pIC50: 6.21
Structure (SMILES): COc1cc(-c2nc3ccc(C)cn3c2NC2CCCC2)ccc1OCCCNC(=O)Nc1ccc(C(F)(F)F)cc1

pIC50: 6.32
Structure (SMILES): COc1cc(-c2nc3ccc(F)cn3c2NC2CCCC2)ccc1OCCCNC(=O)Nc1ccc(C(F)(F)F)cc1
